Results as given in paper PMC4426668, “De novo synthesis of a sunscreen compound in vertebrates” (eLife, 2015).

Tests used:
Type in all cases: biochemical
[1] = molecular target: T1, MT-Ox (zgc:113054) (Danio rerio, UniProt A0ACM8Q6W2); assay: product (gadusol) detection by (-)-ESI-MS; conditions: SAM and NAD+ present; 30 °C
T1 construct: gene wu:fd55e12; bifunctional full-length protein (N-terminal SAM methyltransferase domain, C-terminal NAD+ oxidoreductase domain), N-terminal His6 tag (pRSET-B), codon-optimised, E. coli, Ni-NTA purified
T1 sequence (A0ACM8Q6W2 1-551): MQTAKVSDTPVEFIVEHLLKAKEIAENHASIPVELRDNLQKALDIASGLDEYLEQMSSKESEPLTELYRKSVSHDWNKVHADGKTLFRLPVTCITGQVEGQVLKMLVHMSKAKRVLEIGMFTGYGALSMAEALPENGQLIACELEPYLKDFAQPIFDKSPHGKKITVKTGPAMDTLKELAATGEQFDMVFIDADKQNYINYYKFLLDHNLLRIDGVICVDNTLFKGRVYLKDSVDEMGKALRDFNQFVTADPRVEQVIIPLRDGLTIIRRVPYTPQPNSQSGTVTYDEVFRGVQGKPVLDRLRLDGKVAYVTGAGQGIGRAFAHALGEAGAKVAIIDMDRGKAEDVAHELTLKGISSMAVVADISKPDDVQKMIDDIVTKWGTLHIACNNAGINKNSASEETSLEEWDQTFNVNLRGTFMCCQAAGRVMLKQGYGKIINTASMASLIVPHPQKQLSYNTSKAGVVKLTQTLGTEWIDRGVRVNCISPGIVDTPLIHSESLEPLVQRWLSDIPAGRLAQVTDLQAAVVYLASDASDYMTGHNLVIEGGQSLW

[2] = molecular target: T2, ValA (ShEEVS) (Streptomyces hygroscopicus, UniProt H2K887); assay: TLC and GC-MS of product; conditions: positive control enzyme; 4 mM SH7P, 1 mM NAD+, 0.1 mM CoCl2 or ZnSO4, 20 mM Tris-HCl pH 7.5, 30 °C, 2 h
T2 construct: N-terminal His6 tag (pRSETB-valA), expressed in E. coli BL21 GOLD (DE3) pLysS, Ni-NTA purified
T2 sequence (H2K887 whole entry): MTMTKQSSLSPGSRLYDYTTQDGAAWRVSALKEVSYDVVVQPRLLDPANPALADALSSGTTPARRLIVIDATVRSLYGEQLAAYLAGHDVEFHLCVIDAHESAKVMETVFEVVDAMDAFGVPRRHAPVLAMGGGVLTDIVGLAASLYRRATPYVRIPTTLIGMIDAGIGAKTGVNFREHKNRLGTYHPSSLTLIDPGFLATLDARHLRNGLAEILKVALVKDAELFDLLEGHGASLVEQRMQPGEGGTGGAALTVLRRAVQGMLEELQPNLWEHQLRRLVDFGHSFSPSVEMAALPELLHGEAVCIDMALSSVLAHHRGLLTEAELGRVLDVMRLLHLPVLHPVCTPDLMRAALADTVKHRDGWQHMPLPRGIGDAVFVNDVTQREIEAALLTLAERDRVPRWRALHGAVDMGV

[3] = molecular target: T3, LOC100003999 (zebrafish EEVS, DrEEVS) (Danio rerio, UniProt A0ACD6B5C7); assay: TLC; GC-MS of silylated product against authentic EEV (cell-free extract); conditions: 4 mM SH7P, 1 mM NAD+, 0.1 mM CoCl2 or ZnSO4, pH 7.5, 30 °C
T3 construct: N-terminal His6 tag (pRSET-B), codon-optimised synthetic gene, expressed in E. coli BL21 GOLD (DE3) pLysS, Ni-NTA purified
T3 sequence (A0ACD6B5C7 1-470): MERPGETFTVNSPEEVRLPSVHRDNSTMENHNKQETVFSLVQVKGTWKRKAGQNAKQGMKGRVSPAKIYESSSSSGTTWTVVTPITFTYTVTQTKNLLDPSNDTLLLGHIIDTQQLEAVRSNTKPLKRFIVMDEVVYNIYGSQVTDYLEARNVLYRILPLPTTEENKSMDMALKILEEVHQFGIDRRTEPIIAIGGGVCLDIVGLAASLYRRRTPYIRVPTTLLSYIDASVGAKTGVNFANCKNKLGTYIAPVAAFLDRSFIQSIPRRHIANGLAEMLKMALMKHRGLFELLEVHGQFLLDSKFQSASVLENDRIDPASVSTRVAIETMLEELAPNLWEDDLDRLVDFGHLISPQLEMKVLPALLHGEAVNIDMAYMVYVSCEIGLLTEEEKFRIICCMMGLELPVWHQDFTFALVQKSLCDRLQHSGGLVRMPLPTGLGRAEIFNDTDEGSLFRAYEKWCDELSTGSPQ

[4] = molecular target: T1, MT-Ox (zgc:113054); assay: product (gadusol) detection by HPLC-UV and (-)-ESI-MS; conditions: methyl donor, 5 mM; NAD+ 2 mM, CoCl2 0.2 mM, phosphate pH 7.4, 30 °C
[5] = molecular target: T3, LOC100003999 (zebrafish EEVS, DrEEVS); assay: product detection by TLC; GC-MS with cell-free extract; conditions: 4 mM SH7P, 1 mM NAD+, 0.1 mM CoCl2 or ZnSO4, 20 mM Tris-HCl pH 7.5, 30 °C, 2 h

Row | Structure (SMILES) | product (gadusol) detection by (-)-ESI-MS [1] | TLC and GC-MS of product [2] | TLC; GC-MS of silylated product against authentic EEV (cell-free extract) [3] | product (gadusol) detection by HPLC-UV and (-)-ESI-MS [4] | product detection by TLC; GC-MS with cell-free extract [5]
1 | O=C1C[C@@](O)(CO)[C@@H](O)[C@H](O)[C@@H]1O [2-epi-5-epi-valiolone] | Synthetic EEV incubated with purified MT-Ox | TLC analysis of enzymatic products of purified ValA and purified LOC100003999 | confirmed by thin-layer chromatography (TLC) and GC-MS to be EEV | – | –
2 | C[S+](CC[C@H](N)C(=O)O)C[C@H]1O[C@@H](n2cnc3c(N)ncnc32)[C@H](O)[C@@H]1O (stereo partly drawn) [S-adenosylmethionine] | – | – | – | incubated with EEV in the presence of SAM and NAD^+ | –
3 | O=P(O)(O)OC[C@@H](O)[C@H]1OC(O)(CO)[C@@H](O)[C@@H]1O (stereo partly drawn) [sedoheptulose 7-phosphate] | – | ValA (instead of LOC100003999) was used as a positive control | – | – | Incubation of the recombinant protein with SH7P gave a product
